Data from ChEMBL document CHEMBL3217532, “New analyses of MIC90 data to aid antibacterial drug discovery” (2011).
Converted amounts (≈) assume the structure as drawn.

What was measured:
Assay type in all cases: functional
[1] = system: Pseudomonas aeruginosa; assay: Antimicrobial activity against Pseudomonas aeruginosa 1564-05
[2] = system: Pseudomonas aeruginosa; assay: Antimicrobial activity against Pseudomonas aeruginosa 1951-00
[3] = system: Pseudomonas aeruginosa; assay: Antimicrobial activity against Pseudomonas aeruginosa 1767-00
[4] = system: Pseudomonas aeruginosa; assay: Antimicrobial activity against Pseudomonas aeruginosa 1611-09
[5] = system: Pseudomonas aeruginosa; assay: Antimicrobial activity against Pseudomonas aeruginosa PA-4990
[6] = system: Pseudomonas aeruginosa; assay: Antimicrobial activity against Pseudomonas aeruginosa 1570-05
[7] = system: Pseudomonas aeruginosa; assay: Antimicrobial activity against Pseudomonas aeruginosa 1613-09
[8] = system: Pseudomonas aeruginosa; assay: Antimicrobial activity against Pseudomonas aeruginosa 1619-08
[9] = system: Pseudomonas aeruginosa; assay: Antimicrobial activity against Pseudomonas aeruginosa PA-4993
[10] = system: Pseudomonas aeruginosa; assay: Antimicrobial activity against Pseudomonas aeruginosa PA-75
[11] = system: Pseudomonas aeruginosa; assay: Antimicrobial activity against Pseudomonas aeruginosa 1568-05
[12] = system: Pseudomonas aeruginosa; assay: Antimicrobial activity against Pseudomonas aeruginosa 1954-00
[13] = system: Pseudomonas aeruginosa; assay: Antimicrobial activity against Pseudomonas aeruginosa 1513-08
[14] = system: Pseudomonas aeruginosa; assay: Antimicrobial activity against Pseudomonas aeruginosa 1563-00
[15] = system: Pseudomonas aeruginosa; assay: Antimicrobial activity against Pseudomonas aeruginosa PA-4624
[16] = system: Pseudomonas aeruginosa; assay: Antimicrobial activity against Pseudomonas aeruginosa 1953-00
[17] = system: Pseudomonas aeruginosa; assay: Antimicrobial activity against Pseudomonas aeruginosa PA-4991
[18] = system: Pseudomonas aeruginosa; assay: Antimicrobial activity against Pseudomonas aeruginosa 1567-05
[19] = system: Pseudomonas aeruginosa; assay: Antimicrobial activity against Pseudomonas aeruginosa 1955-00
[20] = system: Pseudomonas aeruginosa; assay: Antimicrobial activity against Pseudomonas aeruginosa PA-1757
[21] = system: Pseudomonas aeruginosa; assay: Antimicrobial activity against Pseudomonas aeruginosa PA-4999
[22] = system: Pseudomonas aeruginosa; assay: Antimicrobial activity against Pseudomonas aeruginosa 1753-00
[23] = system: Pseudomonas aeruginosa; assay: Antimicrobial activity against Pseudomonas aeruginosa 1761-00
[24] = system: Pseudomonas aeruginosa; assay: Antimicrobial activity against Pseudomonas aeruginosa 1565-05
[25] = system: Pseudomonas aeruginosa; assay: Antimicrobial activity against Pseudomonas aeruginosa 1509-08
[26] = system: Pseudomonas aeruginosa; assay: Antimicrobial activity against Pseudomonas aeruginosa 1614-09
[27] = system: Pseudomonas aeruginosa; assay: Antimicrobial activity against Pseudomonas aeruginosa 1956-00
[28] = system: Pseudomonas aeruginosa; assay: Antimicrobial activity against Pseudomonas aeruginosa 1526-08
[29] = system: Pseudomonas aeruginosa; assay: Antimicrobial activity against Pseudomonas aeruginosa 1512-08
[30] = system: Pseudomonas aeruginosa; assay: Antimicrobial activity against Pseudomonas aeruginosa 1569-05
[31] = system: Pseudomonas aeruginosa; assay: Antimicrobial activity against Pseudomonas aeruginosa 1566-05
[32] = system: Pseudomonas aeruginosa; assay: Antimicrobial activity against Pseudomonas aeruginosa 1523-08
[33] = system: Pseudomonas aeruginosa; assay: Antimicrobial activity against Pseudomonas aeruginosa 1514-08
[34] = system: Pseudomonas aeruginosa; assay: Antimicrobial activity against Pseudomonas aeruginosa 1562-05
[35] = system: Pseudomonas aeruginosa; assay: Antimicrobial activity against Pseudomonas aeruginosa 1957-00
[36] = system: Pseudomonas aeruginosa; assay: Antimicrobial activity against Pseudomonas aeruginosa 1752-00
[37] = system: Pseudomonas aeruginosa; assay: Antimicrobial activity against Pseudomonas aeruginosa 1615-09
[38] = system: Pseudomonas aeruginosa; assay: Antimicrobial activity against Pseudomonas aeruginosa PA-4995
[39] = system: Pseudomonas aeruginosa; assay: Antimicrobial activity against Pseudomonas aeruginosa PA-4997
[40] = system: Pseudomonas aeruginosa; assay: Antimicrobial activity against Pseudomonas aeruginosa 1764-00
[41] = system: Pseudomonas aeruginosa; assay: Antimicrobial activity against Pseudomonas aeruginosa 1766-00
[42] = system: Pseudomonas aeruginosa; assay: Antimicrobial activity against Pseudomonas aeruginosa 1765-00
[43] = system: Pseudomonas aeruginosa; assay: Antimicrobial activity against Pseudomonas aeruginosa 1521-08
[44] = system: Pseudomonas aeruginosa; assay: Antimicrobial activity against Pseudomonas aeruginosa 1527-08
[45] = system: Pseudomonas aeruginosa; assay: Antimicrobial activity against Pseudomonas aeruginosa 1612-09
[46] = system: Pseudomonas aeruginosa; assay: Antimicrobial activity against Pseudomonas aeruginosa 1515-08
[47] = system: Pseudomonas aeruginosa; assay: Antimicrobial activity against Pseudomonas aeruginosa 1510-08
[48] = system: Pseudomonas aeruginosa; assay: Antimicrobial activity against Pseudomonas aeruginosa 1768-00
[49] = system: Pseudomonas aeruginosa; assay: Antimicrobial activity against Pseudomonas aeruginosa 1952-00
[50] = system: Pseudomonas aeruginosa; assay: Antimicrobial activity against Pseudomonas aeruginosa 1561-05
[51] = system: Pseudomonas aeruginosa; assay: Antimicrobial activity against Pseudomonas aeruginosa 1760-00

With `CC1(C)[C@H](NC(=O)/C(=N\OCc2cc(=O)c(O)cn2O)c2csc(N)n2)C(=O)N1OS(=O)(=O)O` the MIC90 [1] was 0.5 µg/mL (≈ 0.964 µM), the MIC90 [2] was 1 µg/mL (≈ 1.93 µM) and the MIC90 [3] was 0.5 µg/mL (≈ 0.964 µM). For the same compound, the MIC90 [4] was 0.125 µg/mL (≈ 0.241 µM), the MIC90 [5] was 0.5 µg/mL (≈ 0.964 µM) and the MIC90 [6] was 0.5 µg/mL (≈ 0.964 µM). For the same compound, the MIC90 [7] was 0.5 µg/mL (≈ 0.964 µM), the MIC90 [8] was 0.06 µg/mL (≈ 0.116 µM) and the MIC90 [9] was 0.5 µg/mL (≈ 0.964 µM). It also gave an MIC90 [10] of 0.5 µg/mL (≈ 0.964 µM), an MIC90 [11] of 0.5 µg/mL (≈ 0.964 µM) and an MIC90 [12] of 0.25 µg/mL (≈ 0.482 µM). The MIC90 [13] was 1 µg/mL (≈ 1.93 µM), the MIC90 [14] was 0.5 µg/mL (≈ 0.964 µM) and the MIC90 [15] was 1 µg/mL (≈ 1.93 µM). The MIC90 [16] was 1 µg/mL (≈ 1.93 µM), the MIC90 [17] was 1 µg/mL (≈ 1.93 µM) and the MIC90 [18] was 0.5 µg/mL (≈ 0.964 µM). For the same compound, the MIC90 [19] was 0.5 µg/mL (≈ 0.964 µM), the MIC90 [20] was 8 µg/mL (≈ 15.4 µM) and the MIC90 [21] was 1 µg/mL (≈ 1.93 µM). For the same compound, the MIC90 [22] was 4 µg/mL (≈ 7.71 µM), the MIC90 [23] was 4 µg/mL (≈ 7.71 µM) and the MIC90 [24] was 0.5 µg/mL (≈ 0.964 µM). For the same compound, the MIC90 [25] was 2 µg/mL (≈ 3.86 µM), the MIC90 [26] was 0.5 µg/mL (≈ 0.964 µM) and the MIC90 [27] was 0.5 µg/mL (≈ 0.964 µM). The MIC90 [28] was 0.5 µg/mL (≈ 0.964 µM), the MIC90 [29] was 0.5 µg/mL (≈ 0.964 µM) and the MIC90 [30] was 1 µg/mL (≈ 1.93 µM). The MIC90 [31] was 1 µg/mL (≈ 1.93 µM), the MIC90 [32] was 1 µg/mL (≈ 1.93 µM) and the MIC90 [33] was 2 µg/mL (≈ 3.86 µM). The MIC90 [34] was 1 µg/mL (≈ 1.93 µM), the MIC90 [35] was 0.25 µg/mL (≈ 0.482 µM) and the MIC90 [36] was 1 µg/mL (≈ 1.93 µM). It also gave an MIC90 [37] of 1 µg/mL (≈ 1.93 µM), an MIC90 [38] of 0.5 µg/mL (≈ 0.964 µM) and an MIC90 [39] of 1 µg/mL (≈ 1.93 µM). The MIC90 [40] was 0.5 µg/mL (≈ 0.964 µM), the MIC90 [41] was 0.5 µg/mL (≈ 0.964 µM) and the MIC90 [42] was 4 µg/mL (≈ 7.71 µM). For the same compound, the MIC90 [43] was 2 µg/mL (≈ 3.86 µM), the MIC90 [44] was 1 µg/mL (≈ 1.93 µM) and the MIC90 [45] was 16 µg/mL (≈ 30.9 µM). It also gave an MIC90 [46] of 1 µg/mL (≈ 1.93 µM), an MIC90 [47] of 8 µg/mL (≈ 15.4 µM) and an MIC90 [48] of 0.5 µg/mL (≈ 0.964 µM). The MIC90 [49] was 1 µg/mL (≈ 1.93 µM), the MIC90 [50] was 2 µg/mL (≈ 3.86 µM) and the MIC90 [51] was 1 µg/mL (≈ 1.93 µM).
Compound `C[C@H]1[C@H](NC(=O)/C(=N\OC(C)(C)C(=O)O)c2csc(N)n2)C(=O)N1C(=O)NS(=O)(=O)n1nc(-c2cc(=O)c(O)c[nH]2)n(CC(N)=O)c1=O` has an MIC90 [1] of 0.125 µg/mL (≈ 0.176 µM), an MIC90 [2] of 0.25 µg/mL (≈ 0.351 µM) and an MIC90 [3] of 0.25 µg/mL (≈ 0.351 µM). It also gave an MIC90 [4] of 0.06 µg/mL (≈ 0.0843 µM), an MIC90 [5] of 0.25 µg/mL (≈ 0.351 µM) and an MIC90 [6] of 0.25 µg/mL (≈ 0.351 µM). For the same compound, the MIC90 [7] was 0.5 µg/mL (≈ 0.703 µM), the MIC90 [8] was 0.06 µg/mL (≈ 0.0843 µM) and the MIC90 [9] was 0.06 µg/mL (≈ 0.0843 µM). It also gave an MIC90 [10] of 0.25 µg/mL (≈ 0.351 µM), an MIC90 [11] of 0.25 µg/mL (≈ 0.351 µM) and an MIC90 [12] of 0.06 µg/mL (≈ 0.0843 µM). The MIC90 [13] was 0.5 µg/mL (≈ 0.703 µM), the MIC90 [14] was 0.125 µg/mL (≈ 0.176 µM) and the MIC90 [15] was 0.25 µg/mL (≈ 0.351 µM). The MIC90 [16] was 0.5 µg/mL (≈ 0.703 µM), the MIC90 [17] was 0.25 µg/mL (≈ 0.351 µM) and the MIC90 [18] was 0.125 µg/mL (≈ 0.176 µM). For the same compound, the MIC90 [19] was 0.125 µg/mL (≈ 0.176 µM), the MIC90 [20] was 4 µg/mL (≈ 5.62 µM) and the MIC90 [21] was 0.25 µg/mL (≈ 0.351 µM). For the same compound, the MIC90 [22] was 0.25 µg/mL (≈ 0.351 µM), the MIC90 [23] was 0.5 µg/mL (≈ 0.703 µM) and the MIC90 [24] was 0.125 µg/mL (≈ 0.176 µM). It also gave an MIC90 [25] of 1 µg/mL (≈ 1.41 µM), an MIC90 [26] of 0.25 µg/mL (≈ 0.351 µM) and an MIC90 [27] of 0.06 µg/mL (≈ 0.0843 µM). The MIC90 [28] was 0.5 µg/mL (≈ 0.703 µM), the MIC90 [29] was 0.25 µg/mL (≈ 0.351 µM) and the MIC90 [30] was 0.25 µg/mL (≈ 0.351 µM). The MIC90 [31] was 0.25 µg/mL (≈ 0.351 µM), the MIC90 [32] was 0.25 µg/mL (≈ 0.351 µM) and the MIC90 [33] was 0.5 µg/mL (≈ 0.703 µM). It also gave an MIC90 [34] of 0.125 µg/mL (≈ 0.176 µM), an MIC90 [35] of 0.125 µg/mL (≈ 0.176 µM) and an MIC90 [36] of 0.25 µg/mL (≈ 0.351 µM). It also gave an MIC90 [37] of 0.25 µg/mL (≈ 0.351 µM), an MIC90 [38] of 0.06 µg/mL (≈ 0.0843 µM) and an MIC90 [39] of 0.25 µg/mL (≈ 0.351 µM). It also gave an MIC90 [40] of 0.25 µg/mL (≈ 0.351 µM), an MIC90 [41] of 16 µg/mL (≈ 22.5 µM) and an MIC90 [42] of 1 µg/mL (≈ 1.41 µM). The MIC90 [43] was 0.5 µg/mL (≈ 0.703 µM), the MIC90 [44] was 0.25 µg/mL (≈ 0.351 µM) and the MIC90 [45] was 0.25 µg/mL (≈ 0.351 µM). It also gave an MIC90 [46] of 0.25 µg/mL (≈ 0.351 µM), an MIC90 [47] of 2 µg/mL (≈ 2.81 µM) and an MIC90 [48] of 0.06 µg/mL (≈ 0.0843 µM). For the same compound, the MIC90 [49] was 0.25 µg/mL (≈ 0.351 µM), the MIC90 [50] was 0.5 µg/mL (≈ 0.703 µM) and the MIC90 [51] was 1 µg/mL (≈ 1.41 µM).
